Results as given in patent US9409884B2 (Rigel Pharmaceuticals, Inc., priority 2012, dated 2016).

Biological target: AMPK
Assay: AMPK activation, enzyme-linked immunosorbent assay
Format: biochemical
Method in brief: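 AMPK activation by test compounds was measured by enzyme-linked immunosorbent assay.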

Structure (SMILES)	EC50 (Table 9, compounds of Table 2) [µM]	EC50 (Table 10, compounds of Table 3) [µM]
O=C(NC1CCN(S(=O)(=O)c2cccc(C(F)(F)F)c2)CC1)c1ccc2[nH]c3c(c2c1)CN(Cc1ccc(C(F)(F)F)cc1)CC3 [Compound 2-30, 2-(4-(trifluoromethyl)benzyl)-N-(1-(3-(trifluoromethyl)phenylsulfonyl)piperidin-4-yl)-2,3,4,5-tetrahydro-1H-pyrido[4,3-b]indole-8-carboxamide]	1 to 5	
O=C(NC1CCN(S(=O)(=O)c2ccc(Cl)cc2)CC1)c1ccc2[nH]c3c(c2c1)CN(Cc1ccc(C(F)(F)F)cc1)CC3 [Compound 2-32, N-(1-(4-chlorophenylsulfonyl)piperidin-4-yl)-2-(4-(trifluoromethyl)benzyl)-2,3,4,5-tetrahydro-1H-pyrido[4,3-b]indole-8-carboxamide]	1 to 5	
O=C(NC1CCN(C(=O)Nc2ccc(C(F)(F)F)cc2)CC1)c1ccc2[nH]c3c(c2c1)CN(Cc1ccc(C(F)(F)F)cc1)CC3 [Compound 2-33, 2-(4-(trifluoromethyl)benzyl)-N-(1-(4-(trifluoromethyl)phenylcarbamoyl)piperidin-4-yl)-2,3,4,5-tetrahydro-1H-pyrido[4,3-b]indole-8-carboxamide]	1 to 5	
O=C(NC1CCN(S(=O)(=O)c2ccc(F)cc2)CC1)c1ccc2[nH]c3c(c2c1)CN(c1ccc(F)cc1)CC3 [Compound 2-35, 2-(4-fluorophenyl)-N-(1-(4-fluorophenylsulfonyl)piperidin-4-yl)-2,3,4,5-tetrahydro-1H-pyrido[4,3-b]indole-8-carboxamide]	10 to 50	
O=C(NC1CCN(Cc2cccnc2)CC1)c1ccc2[nH]c3c(c2c1)CN(c1ccc(F)cc1)CC3 [Compound 2-36, 2-(4-fluorophenyl)-N-(1-(pyridin-3-ylmethyl)piperidin-4-yl)-2,3,4,5-tetrahydro-1H-pyrido[4,3-b]indole-8-carboxamide]	> 100	
O=C(NC1CCN(Cc2ccc(C(F)(F)F)cc2)CC1)c1ccc2[nH]c3c(c2c1)CN(c1ccc(F)cc1)CC3 [Compound 2-37, 2-(4-fluorophenyl)-N-(1-(4-(trifluoromethyl)benzyl)piperidin-4-yl)-2,3,4,5-tetrahydro-1H-pyrido[4,3-b]indole-8-carboxamide]	5 to 10	
CC(C)(C)OC(=O)N1CCC(NC(=O)c2ccc3[nH]c4c(c3c2)CN(c2ccc(F)cc2)CC4)CC1 [Compound 2-38, tert-butyl 4-(2-(4-fluorophenyl)-2,3,4,5-tetrahydro-1H-pyrido[4,3-b]indole-8-carboxamido)piperidine-1-carboxylate]	10 to 50	
O=C(NC1CCN(C(=O)c2ccc(F)cc2)CC1)c1ccc2[nH]c3c(c2c1)CN(c1ccc(F)cc1)CC3 [Compound 2-39, N-(1-(4-fluorobenzoyl)piperidin-4-yl)-2-(4-fluorophenyl)-2,3,4,5-tetrahydro-1H-pyrido[4,3-b]indole-8-carboxamide]	10 to 50	
O=C(NC1CCN(C(=O)c2cccnc2)CC1)c1ccc2[nH]c3c(c2c1)CN(c1ccc(F)cc1)CC3 [Compound 2-40, 2-(4-fluorophenyl)-N-(1-nicotinoylpiperidin-4-yl)-2,3,4,5-tetrahydro-1H-pyrido[4,3-b]indole-8-carboxamide]	> 100	
O=C(NC1CCN(C(=O)c2ccc(C(F)(F)F)cc2)CC1)c1ccc2[nH]c3c(c2c1)CN(c1ccc(F)cc1)CC3 [Compound 2-41, 2-(4-fluorophenyl)-N-(1-(4-(trifluoromethyl)benzoyl)piperidin-4-yl)-2,3,4,5-tetrahydro-1H-pyrido[4,3-b]indole-8-carboxamide]	10 to 50	
CC(C)(C)OC(=O)N1CCC(NC(=O)c2ccc3[nH]c4c(c3c2)CN(Cc2ccc(C(N)=O)cc2)CC4)CC1 [Compound 2-43, tert-butyl 4-(2-(4-carbamoylbenzyl)-2,3,4,5-tetrahydro-1H-pyrido[4,3-b]indole-8-carboxamido)piperidine-1-carboxylate]	> 100	
N#Cc1ccc(CN2CCC(NC(=O)c3ccc4[nH]c5c(c4c3)CN(Cc3ccc(C(N)=O)cc3)CC5)CC2)cc1 [Compound 2-44, 2-(4-carbamoylbenzyl)-N-(1-(4-cyanobenzyl)piperidin-4-yl)-2,3,4,5-tetrahydro-1H-pyrido[4,3-b]indole-8-carboxamide]	10 to 50	
NC(=O)c1ccc(CN2CCc3[nH]c4ccc(C(=O)NC5CCN(Cc6ccncc6)CC5)cc4c3C2)cc1 [Compound 2-45, 2-(4-carbamoylbenzyl)-N-(1-(pyridin-4-ylmethyl)piperidin-4-yl)-2,3,4,5-tetrahydro-1H-pyrido[4,3-b]indole-8-carboxamide]	> 100	
NC(=O)c1ccc(CN2CCc3[nH]c4ccc(C(=O)NC5CCN(C(=O)c6ccncc6)CC5)cc4c3C2)cc1 [Compound 2-46, 2-(4-carbamoylbenzyl)-N-(1-isonicotinoylpiperidin-4-yl)-2,3,4,5-tetrahydro-1H-pyrido[4,3-b]indole-8-carboxamide]	> 100	
NC(=O)c1ccc(CN2CCc3[nH]c4ccc(C(=O)NC5CCN(Cc6ccc(C(F)(F)F)cc6)CC5)cc4c3C2)cc1 [Compound 2-47, 2-(4-carbamoylbenzyl)-N-(1-(4-(trifluoromethyl)benzyl)piperidin-4-yl)-2,3,4,5-tetrahydro-1H-pyrido[4,3-b]indole-8-carboxamide]	10 to 50	
NC(=O)c1ccc(CN2CCc3[nH]c4ccc(C(=O)NC5CCN(Cc6ccc(F)cc6)CC5)cc4c3C2)cc1 [Compound 2-48, 2-(4-carbamoylbenzyl)-N-(1-(4-fluorobenzyl)piperidin-4-yl)-2,3,4,5-tetrahydro-1H-pyrido[4,3-b]indole-8-carboxamide]	> 100	
NC(=O)c1ccc(CN2CCC(NC(=O)c3ccc4[nH]c5c(c4c3)CN(Cc3ccc(C(N)=O)cc3)CC5)CC2)cc1 [Compound 2-49, 2-(4-carbamoylbenzyl)-N-(1-(4-carbamoylbenzyl)piperidin-4-yl)-2,3,4,5-tetrahydro-1H-pyrido[4,3-b]indole-8-carboxamide]	> 100	
O=C(NC1CCN(Cc2ccncc2)CC1)c1ccc2[nH]c3c(c2c1)CN(Cc1ccc(C(F)(F)F)cc1)CC3 [Compound 2-50, N-(1-(pyridin-4-ylmethyl)piperidin-4-yl)-2-(4-(trifluoromethyl)benzyl)-2,3,4,5-tetrahydro-1H-pyrido[4,3-b]indole-8-carboxamide]	< 0.5	
O=C(NC1CCN(C(=O)c2ccncc2)CC1)c1ccc2[nH]c3c(c2c1)CN(Cc1ccc(C(F)(F)F)cc1)CC3 [Compound 2-51, N-(1-isonicotinoylpiperidin-4-yl)-2-(4-(trifluoromethyl)benzyl)-2,3,4,5-tetrahydro-1H-pyrido[4,3-b]indole-8-carboxamide]	0.5 to 1	
NC(=O)c1ccc(CN2CCC(NC(=O)c3ccc4[nH]c5c(c4c3)CN(Cc3ccc(C(F)(F)F)cc3)CC5)CC2)cc1 [Compound 2-52, N-(1-(4-carbamoylbenzyl)piperidin-4-yl)-2-(4-(trifluoromethyl)benzyl)-2,3,4,5-tetrahydro-1H-pyrido[4,3-b]indole-8-carboxamide]	1 to 5	
Cn1cnc(CN2CCC(NC(=O)c3ccc4[nH]c5c(c4c3)CN(Cc3ccc(C(F)(F)F)cc3)CC5)CC2)c1 [Compound 2-53, N-(1-((1-methyl-1H-imidazol-4-yl)methyl)piperidin-4-yl)-2-(4-(trifluoromethyl)benzyl)-2,3,4,5-tetrahydro-1H-pyrido[4,3-b]indole-8-carboxamide]	10 to 50	
O=C(NC1CCN(Cc2cocn2)CC1)c1ccc2[nH]c3c(c2c1)CN(Cc1ccc(C(F)(F)F)cc1)CC3 [Compound 2-54, N-(1-(oxazol-4-ylmethyl)piperidin-4-yl)-2-(4-(trifluoromethyl)benzyl)-2,3,4,5-tetrahydro-1H-pyrido[4,3-b]indole-8-carboxamide]	< 0.5	
CC(C)(C)OC(=O)N1CCC(NC(=O)c2nc3ccc(OC4CCN(c5ccc(C(F)(F)F)cc5)CC4)cc3o2)CC1 [Compound 3-1, tert-butyl 4-(6-(1-(4-(trifluoromethyl)phenyl)piperidin-4-yloxy)benzo[d]oxazole-2-carboxamido)piperidine-1-carboxylate]		< 0.1
N#Cc1ccc(CN2CCC(NC(=O)c3nc4ccc(OC5CCN(c6ccc(C(F)(F)F)cc6)CC5)cc4o3)CC2)cc1 [Compound 3-2, N-(1-(4-cyanobenzyl)piperidin-4-yl)-6-(1-(4-(trifluoromethyl)phenyl)piperidin-4-yloxy)benzo[d]oxazole-2-carboxamide]		< 0.1
O=C(NC1CCN(Cc2ccncc2)CC1)c1nc2ccc(OC3CCN(c4ccc(C(F)(F)F)cc4)CC3)cc2o1 [Compound 3-3, N-(1-(pyridin-4-ylmethyl)piperidin-4-yl)-6-(1-(4-(trifluoromethyl)phenyl)piperidin-4-yloxy)benzo[d]oxazole-2-carboxamide]		< 0.1
O=C(NC1CCN(C(=O)c2ccc(F)cc2)CC1)c1nc2ccc(OC3CCN(c4ccc(C(F)(F)F)cc4)CC3)cc2o1 [Compound 3-4, N-(1-(4-fluorobenzoyl)piperidin-4-yl)-6-(1-(4-(trifluoromethyl)phenyl)piperidin-4-yloxy)benzo[d]oxazole-2-carboxamide]		< 0.1
O=C(NC1CCNCC1)c1nc2ccc(OC3CCN(c4ccc(C(F)(F)F)cc4)CC3)cc2o1 [Compound 3-5, N-(piperidin-4-yl)-6-(1-(4-(trifluoromethyl)phenyl)piperidin-4-yloxy)benzo[d]oxazole-2-carboxamide]		10 to 100
N#Cc1ccc(C(=O)N2CCC(NC(=O)c3nc4ccc(OC5CCN(c6ccc(C(F)(F)F)cc6)CC5)cc4o3)CC2)cc1 [Compound 3-6, N-(1-(4-cyanobenzoyl)piperidin-4-yl)-6-(1-(4-(trifluoromethyl)phenyl)piperidin-4-yloxy)benzo[d]oxazole-2-carboxamide]		< 0.1
O=C(c1nc2ccc(OC3CCN(c4ccc(C(F)(F)F)cc4)CC3)cc2o1)N1CC2CC1CN2Cc1ccncc1 (centres unmarked) [Compound 3-8, (5-(pyridin-4-ylmethyl)-2,5-diazabicyclo[2.2.1]heptan-2-yl)(6-(1-(4-(trifluoromethyl)phenyl)piperidin-4-yloxy)benzo[d]oxazol-2-yl)methanone]		0.1 to 1
